Data as given in ChEMBL document CHEMBL4715735, “Sesquiterpenes from Inula japonica with Inhibitory Effects on Nitric Oxide Production in Murine Macrophage RAW 264.7 Cells” (J Nat Prod, 2016).
pIC50: −log10 of the molar value.

These compounds were tested on RAW264.7 (assay: Inhibition of LPS-induced NO production in mouse RAW264.7 cells incubated for 24 hrs by Griess reagent based assay). Settings: RAW264.7, 24 h.
Type: functional, cell-based

SMILES | pIC50
C=C1C(=O)O[C@@H]2C[C@H](C)C(CCC(C)=O)=CC[C@H]12 [TOMENTOSIN] | 5.70
C=C1C(=O)O[C@H]2C[C@H](C)[C@@H]3[C@@H](OC(C)=O)C[C@H](O)[C@@]3(C)C[C@H]12 | 5.55
C=C1C(=O)O[C@@H]2CC(C)=C([C@@H](C)CCCOC(C)=O)[C@@H](OC(=O)C[C@H](C)CC)[C@H]12 | 5.18
C=C1C(=O)O[C@H]2C[C@@H](C)[C@@H]3[C@@H](OC(C)=O)C[C@H](O)[C@]3(C)[C@@H](OC(C)=O)[C@H]12 | 5.49
COc1ccc2c(c1)c(CC(=O)O)c(C)n2C(=O)c1ccc(Cl)cc1 [INDOMETHACIN] | 4.94
C=C1C(=O)O[C@H]2C[C@@H](C)[C@@H]3CC[C@H](O)[C@@]3(C)C[C@H]12 [PSEUDOGUAIANOLIDE] | 5.60
C=C1C(=O)O[C@H]2C[C@@H](C)[C@@H]3[C@H](OC(C)=O)C[C@H](O)[C@@]3(C)[C@@H](O)[C@H]12 | 4.81
C=C1C(=O)O[C@H]2C[C@@H](C)[C@@H]3[C@@H](OC(C)=O)C[C@H](OC(C)=O)[C@@]3(C)[C@@H](O)[C@H]12 | 5.60
